The target in assay [1] is T1, 5-hydroxytryptamine receptor 2A (Homo sapiens, UniProt P28223). It is filed as functional, cell-based.
Assay [2] concerns the target T1, 5-hydroxytryptamine receptor 2A. It is filed as functional, cell-based. This is another data set of the same source.
The next assay concerns the target T2, Adenosine receptor A3 (Homo sapiens, UniProt P0DMS8).
T2 sequence (P0DMS8 whole entry): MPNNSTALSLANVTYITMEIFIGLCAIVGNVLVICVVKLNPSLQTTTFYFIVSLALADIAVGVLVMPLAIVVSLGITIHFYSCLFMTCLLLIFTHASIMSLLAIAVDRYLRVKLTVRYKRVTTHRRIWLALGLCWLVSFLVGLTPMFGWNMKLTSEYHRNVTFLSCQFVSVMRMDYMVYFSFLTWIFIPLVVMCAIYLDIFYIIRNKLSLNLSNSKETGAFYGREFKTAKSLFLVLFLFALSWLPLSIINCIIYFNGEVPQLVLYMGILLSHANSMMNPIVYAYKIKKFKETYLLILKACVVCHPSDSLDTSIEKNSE

In assay [3] the target is T3, Prostaglandin G/H synthase 1 (Rattus norvegicus, UniProt Q63921).
T3 sequence (Q63921 whole entry): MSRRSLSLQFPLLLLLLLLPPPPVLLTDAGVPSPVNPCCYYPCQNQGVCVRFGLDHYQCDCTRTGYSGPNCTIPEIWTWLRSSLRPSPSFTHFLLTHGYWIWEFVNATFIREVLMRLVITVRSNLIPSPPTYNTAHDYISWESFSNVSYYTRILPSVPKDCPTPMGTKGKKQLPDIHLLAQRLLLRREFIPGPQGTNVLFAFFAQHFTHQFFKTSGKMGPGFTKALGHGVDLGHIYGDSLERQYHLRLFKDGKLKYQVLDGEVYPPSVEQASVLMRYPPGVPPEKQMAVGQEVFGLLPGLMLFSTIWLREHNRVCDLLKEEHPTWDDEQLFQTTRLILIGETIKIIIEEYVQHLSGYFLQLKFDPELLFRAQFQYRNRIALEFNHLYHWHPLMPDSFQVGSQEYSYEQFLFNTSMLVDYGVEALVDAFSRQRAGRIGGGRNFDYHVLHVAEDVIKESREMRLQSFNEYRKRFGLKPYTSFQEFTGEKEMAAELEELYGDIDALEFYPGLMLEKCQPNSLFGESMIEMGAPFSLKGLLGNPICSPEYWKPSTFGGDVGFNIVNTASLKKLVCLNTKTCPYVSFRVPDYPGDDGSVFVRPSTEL
In kind it is functional.

The target of assay [4] is T4, Type-1 angiotensin II receptor (Homo sapiens, UniProt P30556).
T4 sequence (P30556 whole entry): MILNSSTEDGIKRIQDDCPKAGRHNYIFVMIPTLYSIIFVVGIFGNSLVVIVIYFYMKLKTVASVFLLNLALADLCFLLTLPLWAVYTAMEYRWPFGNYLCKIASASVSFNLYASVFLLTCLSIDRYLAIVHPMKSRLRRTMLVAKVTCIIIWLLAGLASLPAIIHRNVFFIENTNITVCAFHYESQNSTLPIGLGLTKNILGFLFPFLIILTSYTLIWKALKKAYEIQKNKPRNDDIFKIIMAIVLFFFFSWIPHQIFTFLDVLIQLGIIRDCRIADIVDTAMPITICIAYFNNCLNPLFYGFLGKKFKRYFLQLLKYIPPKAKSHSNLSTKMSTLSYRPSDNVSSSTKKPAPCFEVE

Assay [5] addresses Voltage-dependent L-type calcium channel subunit alpha-1C (Rattus norvegicus, UniProt P22002). In kind it is functional.
The target in assay [6] is T5, Gastrin/cholecystokinin type B receptor (Homo sapiens, UniProt P32239).
T5 sequence (P32239 whole entry): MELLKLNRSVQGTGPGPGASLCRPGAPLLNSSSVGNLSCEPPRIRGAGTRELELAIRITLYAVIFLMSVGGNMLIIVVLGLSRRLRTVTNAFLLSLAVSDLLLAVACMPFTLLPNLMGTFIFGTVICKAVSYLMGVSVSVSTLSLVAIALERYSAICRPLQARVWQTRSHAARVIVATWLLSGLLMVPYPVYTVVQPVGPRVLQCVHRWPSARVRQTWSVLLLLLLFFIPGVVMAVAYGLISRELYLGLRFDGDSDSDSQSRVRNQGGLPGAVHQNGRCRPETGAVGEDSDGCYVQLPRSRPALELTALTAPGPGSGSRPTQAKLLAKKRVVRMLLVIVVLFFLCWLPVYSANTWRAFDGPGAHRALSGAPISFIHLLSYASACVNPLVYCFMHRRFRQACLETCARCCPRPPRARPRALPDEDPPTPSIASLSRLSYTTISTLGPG

Assay [7] concerns the target T6, Progesterone receptor (Homo sapiens, UniProt P06401).
T6 sequence (P06401 whole entry): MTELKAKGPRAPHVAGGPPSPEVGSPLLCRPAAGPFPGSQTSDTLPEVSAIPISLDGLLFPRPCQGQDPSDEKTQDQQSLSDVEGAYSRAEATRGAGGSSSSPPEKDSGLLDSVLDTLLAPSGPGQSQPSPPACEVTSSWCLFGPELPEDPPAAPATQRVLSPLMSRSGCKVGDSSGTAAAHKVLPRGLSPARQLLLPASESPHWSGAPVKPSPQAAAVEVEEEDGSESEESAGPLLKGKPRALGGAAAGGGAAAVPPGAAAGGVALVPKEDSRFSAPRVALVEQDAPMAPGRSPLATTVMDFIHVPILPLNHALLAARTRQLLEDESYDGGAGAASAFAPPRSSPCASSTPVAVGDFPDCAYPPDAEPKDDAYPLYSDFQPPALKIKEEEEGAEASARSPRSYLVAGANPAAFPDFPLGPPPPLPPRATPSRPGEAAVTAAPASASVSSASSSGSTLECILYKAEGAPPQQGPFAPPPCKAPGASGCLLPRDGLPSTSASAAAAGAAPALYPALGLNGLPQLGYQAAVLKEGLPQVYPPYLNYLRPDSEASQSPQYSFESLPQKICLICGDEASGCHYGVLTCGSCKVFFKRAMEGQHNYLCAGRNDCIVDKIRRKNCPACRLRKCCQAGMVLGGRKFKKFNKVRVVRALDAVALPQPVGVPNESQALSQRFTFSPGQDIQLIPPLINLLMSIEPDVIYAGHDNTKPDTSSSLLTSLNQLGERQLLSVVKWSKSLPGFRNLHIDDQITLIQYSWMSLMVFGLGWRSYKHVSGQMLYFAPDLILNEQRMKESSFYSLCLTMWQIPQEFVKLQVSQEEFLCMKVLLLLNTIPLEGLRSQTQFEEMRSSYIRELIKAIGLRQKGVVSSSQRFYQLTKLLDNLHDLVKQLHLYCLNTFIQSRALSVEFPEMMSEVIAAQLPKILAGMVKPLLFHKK
It is filed as functional.

In assay [8] the target is T6, Progesterone receptor. In kind it is functional. This is another data set of the same source.

The term AC50 denotes the concentration giving half of the maximal activity seen.
Also: assay procedure not described here.

Chain of Voltage-dependent L-type calcium channel subunit alpha-1C (P22002 whole entry): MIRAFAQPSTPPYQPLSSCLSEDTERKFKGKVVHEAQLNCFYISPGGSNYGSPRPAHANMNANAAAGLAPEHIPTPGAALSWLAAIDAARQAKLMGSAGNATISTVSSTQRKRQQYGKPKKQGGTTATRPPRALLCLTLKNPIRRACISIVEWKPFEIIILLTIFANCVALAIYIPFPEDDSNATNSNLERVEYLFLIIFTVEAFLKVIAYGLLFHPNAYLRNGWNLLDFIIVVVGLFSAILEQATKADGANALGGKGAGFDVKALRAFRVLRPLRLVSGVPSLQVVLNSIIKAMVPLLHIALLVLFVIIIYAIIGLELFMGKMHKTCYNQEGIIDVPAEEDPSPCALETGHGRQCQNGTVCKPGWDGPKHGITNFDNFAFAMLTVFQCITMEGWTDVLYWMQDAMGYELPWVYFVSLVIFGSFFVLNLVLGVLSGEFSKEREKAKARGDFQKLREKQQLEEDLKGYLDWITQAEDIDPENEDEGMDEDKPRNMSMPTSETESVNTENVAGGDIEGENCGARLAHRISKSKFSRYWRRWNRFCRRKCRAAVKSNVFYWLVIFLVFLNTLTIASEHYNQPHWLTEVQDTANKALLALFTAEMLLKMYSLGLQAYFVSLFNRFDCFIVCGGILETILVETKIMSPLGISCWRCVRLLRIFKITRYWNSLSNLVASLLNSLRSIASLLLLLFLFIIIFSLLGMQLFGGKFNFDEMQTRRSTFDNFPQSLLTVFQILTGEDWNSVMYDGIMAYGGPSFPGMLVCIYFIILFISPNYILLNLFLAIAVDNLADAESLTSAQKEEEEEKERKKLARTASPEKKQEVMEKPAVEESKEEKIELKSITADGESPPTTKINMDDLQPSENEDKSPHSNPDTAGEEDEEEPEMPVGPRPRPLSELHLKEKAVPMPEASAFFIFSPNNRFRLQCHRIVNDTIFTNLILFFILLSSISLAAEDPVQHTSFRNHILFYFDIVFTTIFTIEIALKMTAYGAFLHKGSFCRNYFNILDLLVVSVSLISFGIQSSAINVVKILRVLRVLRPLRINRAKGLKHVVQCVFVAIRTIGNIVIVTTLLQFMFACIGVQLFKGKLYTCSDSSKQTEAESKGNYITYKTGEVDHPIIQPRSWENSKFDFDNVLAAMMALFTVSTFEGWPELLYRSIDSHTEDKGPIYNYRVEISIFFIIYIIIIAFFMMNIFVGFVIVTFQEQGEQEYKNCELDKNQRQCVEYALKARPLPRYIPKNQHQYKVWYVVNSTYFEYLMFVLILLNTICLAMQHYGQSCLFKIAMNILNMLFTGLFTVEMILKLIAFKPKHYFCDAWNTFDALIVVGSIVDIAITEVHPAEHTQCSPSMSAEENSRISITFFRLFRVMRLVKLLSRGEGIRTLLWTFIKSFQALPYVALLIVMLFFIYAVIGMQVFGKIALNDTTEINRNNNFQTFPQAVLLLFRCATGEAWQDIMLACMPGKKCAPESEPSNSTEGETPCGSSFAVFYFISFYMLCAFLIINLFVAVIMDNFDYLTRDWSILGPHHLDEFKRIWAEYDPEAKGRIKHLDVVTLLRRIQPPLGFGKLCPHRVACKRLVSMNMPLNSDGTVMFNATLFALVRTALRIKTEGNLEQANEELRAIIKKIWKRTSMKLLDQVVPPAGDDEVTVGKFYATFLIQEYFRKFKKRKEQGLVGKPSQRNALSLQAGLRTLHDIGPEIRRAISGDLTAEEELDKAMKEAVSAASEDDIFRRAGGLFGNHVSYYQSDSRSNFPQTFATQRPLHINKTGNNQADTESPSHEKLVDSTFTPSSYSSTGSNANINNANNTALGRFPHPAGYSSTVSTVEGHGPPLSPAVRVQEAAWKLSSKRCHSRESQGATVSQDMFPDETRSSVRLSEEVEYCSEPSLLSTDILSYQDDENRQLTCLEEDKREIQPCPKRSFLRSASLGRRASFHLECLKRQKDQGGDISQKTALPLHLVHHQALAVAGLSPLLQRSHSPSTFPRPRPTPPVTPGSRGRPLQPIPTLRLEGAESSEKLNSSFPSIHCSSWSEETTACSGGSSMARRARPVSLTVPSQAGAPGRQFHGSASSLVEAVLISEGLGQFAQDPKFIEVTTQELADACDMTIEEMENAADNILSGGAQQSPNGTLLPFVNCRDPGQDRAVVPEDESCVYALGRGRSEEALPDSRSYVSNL
T1 sequence (P28223 whole entry): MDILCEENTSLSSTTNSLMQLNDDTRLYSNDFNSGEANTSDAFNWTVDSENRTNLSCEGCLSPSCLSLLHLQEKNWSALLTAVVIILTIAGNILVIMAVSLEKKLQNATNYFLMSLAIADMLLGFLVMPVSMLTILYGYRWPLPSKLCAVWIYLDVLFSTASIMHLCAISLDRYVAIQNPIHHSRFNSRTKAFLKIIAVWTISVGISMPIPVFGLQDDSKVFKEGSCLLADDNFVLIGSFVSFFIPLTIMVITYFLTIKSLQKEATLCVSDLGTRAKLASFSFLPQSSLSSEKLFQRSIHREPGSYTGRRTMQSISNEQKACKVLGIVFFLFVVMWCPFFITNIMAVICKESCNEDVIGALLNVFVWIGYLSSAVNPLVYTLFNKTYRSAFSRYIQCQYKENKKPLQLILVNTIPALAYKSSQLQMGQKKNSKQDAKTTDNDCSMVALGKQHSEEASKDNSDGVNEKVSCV

Regarding `COC(=O)C1=C(C)NC(C)=C(C(=O)OC2CCCN(Cc3ccccc3)C2)C1c1cccc([N+](=O)[O-])c1` (configuration not stated) [BENIDIPINE], the AC50 in assay [1] is above 30 µM; in assay [2], above 30 µM; on Adenosine receptor A3, 3.5 µM; in assay [3] it was above 30 µM; in [4] it was above 30 µM; in [5], 0.014 µM. The same compound gave an AC50 in assay [6] above 30 µM.

`CC(C[N+](C)(C)C)OC(N)=O` (configuration not stated) [BETHANECHOL]: the AC50 (in assay [1]; in [2]; on Adenosine receptor A3; at Progesterone receptor [7]; in assay [3]; in [4]) was above 10 µM in each case. The concentration at half-maximal activity (AC50) (in assay [5]; on Progesterone receptor [8]) was above 10 µM in each case.

Turning to `C=CCC1(CC(C)C)C(=O)NC(=O)NC1=O` [BUTALBITAL], the AC50 is above 10 µM in [1]; above 10 µM in assay [2]; above 10 µM on Adenosine receptor A3; above 10 µM on Progesterone receptor [7]; above 10 µM in assay [3]; above 30 µM in assay [4]. The AC50 (in assay [5]; at Progesterone receptor [8]) was above 10 µM each time.

On to `CCN1CCN(C(=O)N[C@@H](C(=O)N[C@@H]2C(=O)N3C(C(=O)O)=C(CSc4nnnn4C)CS[C@H]23)c2ccc(O)cc2)C(=O)C1=O` [CEFOPERAZONE], for which the AC50 (in assay [1]; in [2]; at Adenosine receptor A3; in assay [3]; in [4]; in assay [6]) was above 30 µM throughout.

For the compound `CCCCc1ncc(/C=C(\Cc2cccs2)C(=O)O)n1Cc1ccc(C(=O)O)cc1` [EPROSARTAN], the half-maximal activity concentration (AC50) in [1] is above 30 µM; in assay [2] it was above 30 µM; at Adenosine receptor A3, above 10 µM; in assay [3], above 30 µM; in [4], 0.0019 µM; in [5], above 10 µM. The compound also yielded an AC50 in assay [6] above 10 µM.

As for `CO[C@@H]1[C@@H](O[C@@H]2O[C@H](C)[C@@H](O[C@H]3C[C@@](C)(O)[C@@H](OC(=O)CC(C)C)[C@H](C)O3)[C@H](N(C)C)[C@H]2O)[C@@H](CC=O)C[C@@H](C)[C@@H](O)/C=C/C=C/C[C@@H](C)OC(=O)C[C@H]1OC(C)=O` [JOSAMYCIN], the concentration at half-maximal activity (AC50) (in assay [1]; in assay [2]; at Adenosine receptor A3; on Progesterone receptor [7]; in [3]; in assay [4]) was above 10 µM in each case. The AC50 (in assay [5]; at Progesterone receptor [8]) was above 10 µM in each case.

For `C[C@H](N)[C@H](O)c1cccc(O)c1` [METARAMINOL], the half-maximal activity concentration (AC50) in assay [1] was above 10 µM; in assay [2], 35 µM; on Adenosine receptor A3, above 10 µM; on Progesterone receptor [7] it was above 10 µM; in [3], above 10 µM; in assay [4], above 10 µM. Further, the AC50 (in [5]; at Progesterone receptor [8]) was above 10 µM each time.

For the compound `O=C(O)[C@H](CC(=O)N1C[C@H]2CCCC[C@H]2C1)Cc1ccccc1` [MITIGLINIDE], the AC50 (in assay [1]; in assay [2]; at Adenosine receptor A3; at Progesterone receptor [7]; in assay [3]; in assay [4]) was above 10 µM in each case. Moreover, the AC50 (in assay [5]; on Progesterone receptor [8]) was above 10 µM each time.

In the case of `CCCC(C)C1(CC)C(=O)NC(=O)NC1=O` (configuration not stated) [PENTOBARBITAL], the AC50 (in assay [1]; in [2]; at Adenosine receptor A3; at Progesterone receptor [7]; in [3]; in assay [4]) was above 10 µM throughout. For the same compound, the AC50 (in [5]; on Progesterone receptor [8]) was above 10 µM each time.

With `CC[C@@H]1C(=O)OC[C@@H]1Cc1cncn1C` [PILOCARPINE], the concentration at half-maximal activity (AC50) in assay [1] is above 30 µM; in [2], above 30 µM; at Adenosine receptor A3, above 30 µM; in assay [3], above 30 µM; in assay [4] it was above 30 µM; in [5] it was above 10 µM. Further, the AC50 in [6] was above 30 µM.

On to `O=C(O)C[C@H](O)C[C@H](O)/C=C/c1c(C2CC2)nc2ccccc2c1-c1ccc(F)cc1` [PITAVASTATIN], for which the AC50 (in assay [1]; in assay [2]; at Adenosine receptor A3; on Progesterone receptor [7]; in assay [3]; in assay [4]) was above 30 µM each time. In addition, the AC50 in [5] is above 10 µM; at Progesterone receptor [8], above 30 µM.

On to `COC(=O)[C@H]1[C@H]2C[C@@H]3c4[nH]c5cc(OC)ccc5c4CCN3C[C@H]2C[C@@H](OC(=O)/C=C/c2cc(OC)c(OC)c(OC)c2)[C@@H]1OC` [RESCINNAMINE], for which the AC50 in [1] was above 10 µM; in assay [2], above 10 µM; at Adenosine receptor A3 it was above 30 µM; on Progesterone receptor [7], above 10 µM; in [3], 11.6 µM; in assay [4], above 10 µM. The AC50 in assay [5] is 5.16 µM; at Progesterone receptor [8], above 10 µM.

As for `C=CCC1(C(C)CC)C(=O)NC(=O)NC1=O` (configuration not stated) [TALBUTAL], the AC50 (in [1]; in assay [2]; on Adenosine receptor A3; on Progesterone receptor [7]; in [3]; in assay [4]) was above 10 µM throughout. Besides, the AC50 (in assay [5]; on Progesterone receptor [8]) was above 10 µM each time.

For `C[C@H](CSC(=O)c1ccccc1)C(=O)N1C[C@@H](Sc2ccccc2)C[C@H]1C(=O)O` [ZOFENOPRIL], the AC50 (in assay [1]; in [2]; on Adenosine receptor A3; at Progesterone receptor [7]; in [3]; in assay [4]) was above 10 µM throughout. Also, the AC50 (in assay [5]; on Progesterone receptor [8]) was above 10 µM in each case.

For the origin of these results see ChEMBL document CHEMBL5291721, “A preclinical secondary pharmacology resource illuminates target-adverse drug reaction associations of marketed drugs” (Nat Commun, 2023).
